# Assay results published in patent US20220372542A1, “DETECTION OF ANALYTES BY PROTEIN SWITCHES” (priority 2019, published 2022).
# Assays:
# [1] = target: glucose dehydrogenase protein switch GDH-2004, GDH-105 variant (Bacillus subtilis, UniProt P12310); experiment: screen of GDH variants for glucose activity against analytes; assay type: biochemical
# Description: (§1) Glucose dehydrogenase (GDH) variant libraries comprising GDH polypeptides developed using GDH-105 (Codexis, Redwood, Calif.) as a backbone were prepared. Approximately 2800 GDH variants were prepared. Glucose activity was determined by either NADH kinetic assay using a spectrophotometer set at UV 340 or UV 360 at various time intervals or by endpoint measurement of gluconic acid using RapidFire mass spectrometer.
# [2] = target: glucose dehydrogenase protein switch GDH-2005, GDH-105 variant (Bacillus subtilis, UniProt P12310); experiment: as above; assay type: biochemical; conditions: cortisol 2.08 mM, pH 7.5, NADH kinetics at UV340
# Description: as §1
# [3] = target: glucose dehydrogenase protein switch GDH-2007, GDH-105 variant (Bacillus subtilis, UniProt P12310); experiment: as above; assay type: biochemical; conditions: methotrexate 5.42 mM, pH 7.0, gluconic acid by RapidFire MS
# Description: as §1
# [4] = target: glucose dehydrogenase protein switch GDH-2008, GDH-105 variant (Bacillus subtilis, UniProt P12310); experiment: as above; assay type: biochemical; conditions: methotrexate 5.42 mM, pH 7.0, gluconic acid by RapidFire MS
# Description: as §1
# [5] = target: glucose dehydrogenase protein switch GDH-2009, GDH-105 variant (Bacillus subtilis, UniProt P12310); experiment: as above; assay type: biochemical
# Description: as §1
# [6] = target: glucose dehydrogenase protein switch GDH-2010, GDH-105 variant (Bacillus subtilis, UniProt P12310); experiment: as above; assay type: biochemical; conditions: methotrexate 5.42 mM, pH 7.0, gluconic acid by RapidFire MS
# Description: as §1
# [7] = target: T1, glucose dehydrogenase GDH-105 (control, backbone) (Bacillus subtilis, UniProt P12310, E198G/I165M/P194T); experiment: warfarin inhibition of GDH sensor (FIGS. 9A and 9B); assay type: biochemical; conditions: 10, 30, 80, 180, and 300 uM warfarin; NAD+ 5 mM, glucose 1 mM, 33° C.
# Description: (§2) Warfarin Sensor. Experimental GDH-105 and GDH-2016 glucose-responsive active areas were prepared using a single-layer active area system. The GDH was obtained from Codexis, Redwood City, Calif. The active area was coated onto a carbon working electrode in a single layer composition (Table 8). Following deposition of the active area, the active area was cured for three days at RT.
# (§3) Experimental procedure. Testing of the GDH-105 and GDH-2016 sensors was conducted by immersing the electrode in a 100 mM PBS buffer solution at 33° C. NAD^+ (5 mM) supplied to a test beaker containing PBS buffer followed by the addition of glucose (1 mM).
# [8] = target: T2, glucose dehydrogenase protein switch GDH-2016 (Rd2bb), GDH-105 variant, SEQ ID NO: 11 (Bacillus subtilis, UniProt P12310, A159T/E170K/E96C/F155A/I165M/P194T/Q252L/V156S); experiment: biochemical; conditions: read-out: inhibition at 300 uM warfarin
# T2 construct: electrode sensor and screen
# Description: as §2, with “Experimental” for “Warfarin Sensor. Experimental”
# as §3
# [9] = target: T1, glucose dehydrogenase GDH-105 (control, backbone); experiment: warfarin inhibition of evolved GDH sensors (Table 13); assay type: biochemical; conditions: NAD+ 10 mM, glucose 5 mM, 33° C.
# Description: (§4) Evolved Warfarin sensors. GDH-105, GDH-2016, GDH-2025, GDH-2026, GDH-2027, and GDH-2028 glucose-responsive active areas were prepared using a single-layer active area system. The GDH was obtained from Codexis, Redwood City, Calif. The active area (0.33 mm^2) was coated onto a carbon working electrode in a single layer composition (Table 8). Following deposition of the active area, the active area was cured for three days at room temperature.
# (§5) Experimental procedure. Testing of the GDH-105, GDH-2016, GDH-2025, GDH-2026, GDH-2027, and GDH-2028 sensors was conducted by immersing the electrode in a 100 mM PBS buffer solution at 33° C. NAD^+(10 mM) supplied to a test beaker containing PBS buffer followed by the addition of glucose (5 mM).
# [10] = target: glucose dehydrogenase protein switch GDH-2025 (Rd3bb), variant of GDH-2016, C96F, SEQ ID NO: 1 (Bacillus subtilis, UniProt P12310, A159T/E170K/E96F/F155A/I165M/P194T/Q252L/V156S); experiment: as above; assay type: biochemical; conditions: NAD+ 10 mM, glucose 5 mM, 100 mM PBS, 33° C.
# Description: as §4, §5
# [11] = target: glucose dehydrogenase protein switch GDH-2026, variant of GDH-2016, C96F; I141V, SEQ ID NO: 7 (Bacillus subtilis, UniProt P12310, A159T/E170K/E96F/F155A/I141V/I165M/P194T/Q252L/V156S); experiment: as above; assay type: biochemical; conditions: NAD+ 10 mM, glucose 5 mM, 100 mM PBS, 33° C.
# Description: as §4, §5
# [12] = target: glucose dehydrogenase protein switch GDH-2027, variant of GDH-2025, C96F; A173G, SEQ ID NO: 12 (Bacillus subtilis, UniProt P12310, A159T/A173G/E170K/E96F/F155A/I165M/P194T/Q252L/V156S); experiment: as above; assay type: biochemical; conditions: NAD+ 10 mM, glucose 5 mM, 100 mM PBS, 33° C.
# Description: as §4, §5
# [13] = target: glucose dehydrogenase protein switch GDH-2028 (Rd4bb), variant of GDH-2025, C96F; L252V, SEQ ID NO: 15 (Bacillus subtilis, UniProt P12310, A159T/E170K/E96F/F155A/I165M/P194T/Q252V/V156S); experiment: as above; assay type: biochemical; conditions: NAD+ 10 mM, glucose 5 mM, 100 mM PBS, 33° C.
# Description: as §4, §5
# [14] = target: T2, glucose dehydrogenase protein switch GDH-2016 (Rd2bb), GDH-105 variant, SEQ ID NO: 11; assay type: biochemical; conditions: warfarin 2.08 mM, pH 7.0, NADH kinetics at UV360
# Description: as §1
# [15] = target: glucose dehydrogenase protein switch GDH-2013, GDH-105 variant (Bacillus subtilis, UniProt P12310); experiment: screen of GDH variants for glucose activity against analytes; assay type: biochemical; conditions: warfarin 2.08 mM, pH 7.0, NADH kinetics at UV360
# Description: as §1
# [16] = methotrexate 5.42 mM, pH 7.0, gluconic acid by RapidFire MS
# [17] = warfarin 2.08 mM, pH 7.0, NADH kinetics at UV360
smiles,measurement,setting,value
C[C@]12CCC(=O)C=C1CC[C@@H]1[C@@H]2[C@@H](O)C[C@@]2(C)[C@H]1CC[C@]2(O)C(=O)CO [Cortisol],Activate/Inhibit (glucose activity),"[1]; cortisol 2.08 mM, pH 7.5, NADH kinetics at UV340",Inhibit
same,Activate/Inhibit (glucose activity),[2],Inhibit
CN(Cc1cnc2nc(N)nc(N)c2n1)c1ccc(C(=O)N[C@@H](CCC(=O)O)C(=O)O)cc1 [Methotrexate],Activate/Inhibit (glucose activity),[1]; [16],Inhibit
same,Activate/Inhibit (glucose activity),[3],Inhibit
same,Activate/Inhibit (glucose activity),[4],Inhibit
same,Activate/Inhibit (glucose activity),[5]; [16],Inhibit
same,Activate/Inhibit (glucose activity),[6],Inhibit
"CC(=O)CC(c1ccccc1)c1c(O)c2ccccc2oc1=O (stereo not shown) [Warfarin, warfarin]",inhibition of the sensor to increasing warfarin concentrations,[7],not affected
same,inhibition at 300 µM,[8],~55%
same,GDH inhibition at 0.3 mM WF,"[9]; 0.3 mM WF, 100 mM PBS",5%
same,inhibition to increasing warfarin concentrations,"[9]; 10, 30, 80, 180, and 300 uM warfarin",remained unaffected
same,GDH inhibition at 0.3 mM WF,[10],79%
same,GDH inhibition at 0.3 mM WF,[11],78%
same,GDH inhibition at 0.3 mM WF,[12],79%
same,GDH inhibition at 0.3 mM WF,[13],84%
same,Activate/Inhibit (glucose activity),[14],Inhibit
same,Activate/Inhibit (glucose activity),[1]; [17],Inhibit
same,Activate/Inhibit (glucose activity),[5]; [17],Inhibit
same,Activate/Inhibit (glucose activity),[15],Inhibit
